In the supplement of paper PMC8741786:
In brackets after ≈: the same amount, converted by molar mass.

Experiments:
[1] = test system: Neisseria subflava/flavescens/perflava; experiment: minimum inhibitory concentration (ETEST); conditions: population: general population, antibiotic use in previous 6 months: No
Description: (§1)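 Oropharyngeal Neisseria isolates from MSM and employees in Belgium were identified to species by MALDI-TOF MS. MICs of azithromycin, ceftriaxone and ciprofloxacin were determined by ETEST on GC agar after 24 h at 36.5 °C and 5-7% CO2, in mg/L. Values beyond the strip range are reported as >256 (azithromycin) or <0.016 (ceftriaxone); isolates that did not grow are NA.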

[2] = test system: Neisseria mucosa/macacae; experiment: minimum inhibitory concentration (ETEST)
Description: as §1

CC[C@H]1OC(=O)[C@H](C)[C@@H](O[C@H]2C[C@@](C)(OC)[C@@H](O)[C@H](C)O2)[C@H](C)[C@@H](O[C@@H]2O[C@H](C)C[C@H](N(C)C)[C@H]2O)[C@](C)(O)C[C@@H](C)CN(C)[C@H](C)[C@@H](O)[C@]1(C)O [azithromycin]
[1]
Conditions	minimum inhibitory concentration [µg/mL]
isolate id (sample isolate): Co000773_1	2 (≈ 2.67 µM)
isolate id (sample isolate): Co000773_2	3 (≈ 4.01 µM)
isolate id (sample isolate): Co000774_2	3 (≈ 4.01 µM)
isolate id (sample isolate): Co000775_1	2 (≈ 2.67 µM)
isolate id (sample isolate): Co000775_2	4 (≈ 5.34 µM)
isolate id (sample isolate): Co000775_3	0.094 (≈ 0.126 µM)
isolate id (sample isolate): Co000776_2	32 (≈ 42.7 µM)
isolate id (sample isolate): Co000776_3	24 (≈ 32 µM)
isolate id (sample isolate): Co000777_1	2 (≈ 2.67 µM)
isolate id (sample isolate): Co000777_2	0.25 (≈ 0.334 µM)
isolate id (sample isolate): Co000777_4	> 256
isolate id (sample isolate): Co000778_1	3 (≈ 4.01 µM)
isolate id (sample isolate): Co000778_2	2 (≈ 2.67 µM)
isolate id (sample isolate): Co000778_3	4 (≈ 5.34 µM)
isolate id (sample isolate): Co000780_4	2 (≈ 2.67 µM)
isolate id (sample isolate): Co000781_1	1.5 (≈ 2 µM)
isolate id (sample isolate): Co000781_3	4 (≈ 5.34 µM)
isolate id (sample isolate): Co000781_4	3 (≈ 4.01 µM)
isolate id (sample isolate): Co000782_2	8 (≈ 10.7 µM)
isolate id (sample isolate): Co000782_3	8 (≈ 10.7 µM)
isolate id (sample isolate): Co000782_4	8 (≈ 10.7 µM)
isolate id (sample isolate): Co000783_1	4 (≈ 5.34 µM)
isolate id (sample isolate): Co000783_2	1.5 (≈ 2 µM)
isolate id (sample isolate): Co000783_5	2 (≈ 2.67 µM)
isolate id (sample isolate): Co000784_1	1.5 (≈ 2 µM)
isolate id (sample isolate): Co000784_2	4 (≈ 5.34 µM)
isolate id (sample isolate): Co000784_5	4 (≈ 5.34 µM)
isolate id (sample isolate): Co000785_1	1 (≈ 1.34 µM)
isolate id (sample isolate): Co000785_2	1.5 (≈ 2 µM)
isolate id (sample isolate): Co000785_3	2 (≈ 2.67 µM)
isolate id (sample isolate): Co000785_4	1 (≈ 1.34 µM)
isolate id (sample isolate): Co000786_1	2 (≈ 2.67 µM)
isolate id (sample isolate): Co000786_2	4 (≈ 5.34 µM)
isolate id (sample isolate): Co000787_1	2 (≈ 2.67 µM)
isolate id (sample isolate): Co000787_2	6 (≈ 8.01 µM)
isolate id (sample isolate): Co000787_4	6 (≈ 8.01 µM)
isolate id (sample isolate): Co000788_2	3 (≈ 4.01 µM)
isolate id (sample isolate): Co000788_3	3 (≈ 4.01 µM)
isolate id (sample isolate): Co000788_5	3 (≈ 4.01 µM)
isolate id (sample isolate): Co000789_1	6 (≈ 8.01 µM)
isolate id (sample isolate): Co000790_2	1 (≈ 1.34 µM)
isolate id (sample isolate): Co000790_4	1.5 (≈ 2 µM)

[2]
Conditions	minimum inhibitory concentration [µg/mL]
isolate id (sample isolate): 19041762_2, population: MSM, antibiotic use in previous 6 months: Yes	3 (≈ 4.01 µM)
isolate id (sample isolate): 19051904_1, population: MSM, antibiotic use in previous 6 months: Yes	2 (≈ 2.67 µM)
isolate id (sample isolate): 19052394_2, population: MSM, antibiotic use in previous 6 months: Yes	4 (≈ 5.34 µM)
isolate id (sample isolate): 19062968_1, population: MSM, antibiotic use in previous 6 months: Yes	16 (≈ 21.4 µM)
isolate id (sample isolate): 19081774_2, population: MSM, antibiotic use in previous 6 months: No	24 (≈ 32 µM)
isolate id (sample isolate): 19111422_4, population: MSM, antibiotic use in previous 6 months: No	1.5 (≈ 2 µM)
isolate id (sample isolate): 19111422_7, population: MSM, antibiotic use in previous 6 months: No	1 (≈ 1.34 µM)
isolate id (sample isolate): Co000770_5, population: general population, antibiotic use in previous 6 months: No	3 (≈ 4.01 µM)
isolate id (sample isolate): Co000771_4, population: general population, antibiotic use in previous 6 months: No	6 (≈ 8.01 µM)
isolate id (sample isolate): Co000772_3, population: general population, antibiotic use in previous 6 months: No	4 (≈ 5.34 µM)
isolate id (sample isolate): Co000773_3, population: general population, antibiotic use in previous 6 months: No	2 (≈ 2.67 µM)
isolate id (sample isolate): Co000779_1, population: general population, antibiotic use in previous 6 months: No	2 (≈ 2.67 µM)
isolate id (sample isolate): Co000783_3, population: general population, antibiotic use in previous 6 months: No	6 (≈ 8.01 µM)
isolate id (sample isolate): Co000783_6, population: general population, antibiotic use in previous 6 months: No	32 (≈ 42.7 µM)
isolate id (sample isolate): Co000787_3, population: general population, antibiotic use in previous 6 months: No	4 (≈ 5.34 µM)
isolate id (sample isolate): Co000788_1, population: general population, antibiotic use in previous 6 months: No	2 (≈ 2.67 µM)
isolate id (sample isolate): Co000788_4, population: general population, antibiotic use in previous 6 months: No	4 (≈ 5.34 µM)
